Assay results taken from patent US9144594B2, “Cathepsin L mediated diseases and associated methods and products” (University of Miami, priority 2005, dated 2015).
Positions count from the first letter of the chain named. In names and notes the source's numbering stands. Entries after “also recorded” stand apart in the source; their conditions may differ.

B1: CFP-1690K: dynI690K tagged with ECFP (protein)
chain: MGNRGMEDLIPLVNRLQDAFSAIGQNADLDLPQIAVVGGQSAGKSSVLENFVGRDFLPRGSGIVTRRPLVLQLVNATTEYAEFLHCKGKKFTDFEEVRLEIEAETDRVTGTNKGISPVPINLRVYSPHVLNLTLVDLPGMTKVPVGDQPPDIEFQIRDMLMQFVTKENCLILAVSPANSDLANSDALKVAKEVDPQGQRTIGVITKLDLMDEGTDARDVLENKLLPLRRGYIGVVNRSQKDIDGKKDITAALAAERKFFLSHPSYRHLADRMGTPYLQKVLNQQLTNHIRDTLPGLRNKLQSQLLSIEKEVEEYKNFRPDDPARKTKALLQMVQQFAVDFEKRIEGSGDQIDTYELSGGARINRIFHERFPFELVKMEFDEKELRREISYAIKNIHGIRTGLFTPDMAFETIVKKQVKKIREPCLKCVDMVISELISTVRQCTKKLQQYPRLREEMERIVTTHIREREGRTKEQVMLLIDIELAYMNTNHEDFIGFANAQQRSNQMNKKKTSGNQDEILVIRKGWLTINNIGIMKGGSKEYWFVLTAENLSWYKDDEEKEKKYMLSVDNLKLRDVEKGFMSSKHIFALFNTEQRNVYKDYRQLELACETQEEVDSWKASFLRAGVYPERVGDKEKASETEENGSDSFMHSMDPQLERQVETIRNLVDSYMAIVNKTVRDLMPKTIMHLMKNNTKEFIFSELLANLYSCGDQNTLMEESAEQAQRRDEMLRMYHALKEALSIIGDINTTTVSTPMPPPVDDSWLQVQSVPAGRRSPTSSPTPQRRAPAVPPARPGSRGPAPGPPPAGSALGGAPPVPSRPGASPDPFGPPPQVPSRPNRAPPGVPSRSGQASPSRPESPRPPFDL
modifications: left off: large carriers
notes: dynI690K tagged with ECFP
B2: CFP-K44A: dynK44A tagged with ECFP (protein)
chain: B1 chain with K44A, K690I
modifications: left off: large carriers
notes: dynK44A tagged with ECFP

Legend:
cathepsin L = target: T1, cathepsin L (Homo sapiens, UniProt P07711); experiment: Processing of recombinant dynamin by purified CatL in vitro; type: biochemical
T1 construct: purchased Sigma, Saint Louis, Mo
Experimental: Reinheckel and colleges have developed the bioinformatics tool ‘PEPS’ (Prediction of Endopeptidase Substrates) to predict endopeptidase cleavage sites. By using PEPS, three putative cathepsin L sites within dynamin were identified (FIG. 4A). To assess whether cathepsin L could cleave dynamin at neutral pH 7.0, recombinant dynamin 1 was incubated with purified cathepsin L (Stressgene) and respective proteolytic fragments were determined using anti-dynamin antibodies that recognize N-terminal GTPase domain (Stressgene). […] The most prominent proteolytic fragment traveled with molecular weight of approximately 40 kD. […] Thus, self-assembly of dynamin:GTPγS protected from cathepsin L cleavage. The middle domain and the […] mediate dynamin self-assembly into higher order structures. Based on the 3D-structure of self-assembled dynamin determined by cry-EM, the middle and the GAP domains are localized within self-assembled dynamin and thus amino acid sequences situated within either of these domains are predicted to be inaccessible for cathepsin L. Since activity of cathepsin L at pH 7.0 was marginal if GTP was not added in the assay, in order to examine whether GTPγS and thus self-assembly can protect from cathepsin L cleavage in general, assays were performed at lower pHs. As expected, at pH 5.0 and 6.0 cathepsin L potently proteolyzed recombinant dynamin (FIG. 4E). […] Thus, generation of 40 kD fragment upon addition of GTP in the assay and protection of the cleavage by GTPγS are consistent with primary cleavage site for cathepsin L to be present within the middle domain.
GTP in vitro and in vivo. To further examine if proteolysis of dynamin by cytoplasmic CatL occurs during proteinuric kidney disease, it was examined whether purified dynamin is cleaved by CatL in vitro at neutral pH. The PEPS algorithm identified three putative CatL recognition motifs within dynamin (FIG. 19A): amino acids 55-59 (LPRGS; SEQ ID NO.28) within the GTPase domain, 354-359 (ELSGGA; SEQ ID NO.29) within the middle domain, and 614-618 (FLRAG; SEQ ID NO.30) within the pleckstrin-homology (PH) domain. […] The cleavage pattern obtained in vitro is almost identical to that observed in podocytes after addition of LPS (FIG. 18A, compare lanes 3 and 5). p40 is the predicted size of the N-terminal fragment after cleavage at the ELSGGA sequence (FIG. 19A; SEQ ID NO.29). Another fragment, p55, is observed in the absence of added protease (FIG. 19C, lane 1), likely during protein preparation. Thus, p55 is not a precursor of p40. Furthermore, incubation of dynamin with CatB generated p55 in a nucleotide-independent manner (FIG. 19F, lanes 2-4), whereas furin, another protease also found in podocytes in vivo, was unable to cleave dynamin (FIG. 19F, lanes 6-8). Thus, while p55 is produced by a number of proteases and thus represents a “hot spot” for proteolysis, p40 is generated by CatL only when dynamin is in the GTP-bound conformation.
At pH 5.0 and 6.0, CatL was highly reactive towards recombinant dynamin, even in the absence of GTP (FIG. 19D, lanes 2 and 4).
Recombinant dynamin was purified as described (Damke et al., 2001). 1 μg of dynamin (10 pmol) was diluted in buffer containing 200 mM NaCl, 10 mM HEPES pH 7.0, 2 mM EGTA, 1 mM MgCl2 and 1 mM DTT. When indicated 200 μM of GTP or 1 mM of GTPγS was added, and dynamin was allowed to bind nucleotides for 10 min on ice. Reaction was initiated by addition of 0.5 μl of purified CatL (S.A. 4.13 units/mg of protein from Sigma, Saint Louis, Mo.), and samples were placed at 37° C. in the water bath for 10 min. Total assay volume was 20 μl. Reaction was terminated with addition of E-64d inhibitor (Sigma, Saint Louis, Mo.), and sample buffer. For Western blot analysis 5 μl of the samples was run on 10% SDS-PAGE. When CatB (S.A. 3 units/mg of protein from Sigma, Saint Louis, Mo.) or recombinant human furin (from R&D Systems, Minneapolis, Minn.) were used, 2 μl of the enzymes were added in the assay.

[1] = tested on: dynamin-dynamin interactions; experiment: FLIM analysis of dynamin-dynamin interactions (self-assembly) in podocytes; type: cell-based, mouse; conditions: for dynamin self-assembly by FLIM, in words: podocytes pretreated
Experimental: In one embodiment the cell-based assay to monitor dynamin-dynamin interactions is performed on a cultured mouse podocyte cell line and the readout of dynamin self-assembly using fluorescence lifetime imaging microscopy (FLIM). FLIM is based on the fluorescence resonance energy transfer (FRET) between the donor and acceptor that shortens the lifetime of the donor if the acceptor distance is within ≈100 Å (10 nm). […] The assay is based on overexpressing dynamin in podocytes, and subsequently staining fixed cells with monoclonal anti-dynamin antibodies that have been conjugated with donor or acceptor florophores. In one embodiment of the invention, Alexa-488 is used as the donor florophore and Alexa-568 is used as the acceptor florophore. In yet another embodiment the donor florophore is dynamin conjugated enhanced-cyan fluorescence protein (ECFP) and the acceptor is dynamin conjugated enhanced yellow-fluorescence protein (EYFP). It will be appreciated by the person of ordinary skill in the art that numerous combinations of FRET donor and acceptors can be used, which are readily available and known. In one embodiment, the FLIM assay is carried out in COS cells and the donor can be selected from the list consisting of: ECFP-WT, ECFP-1690K, ECFP-K44A, ECFP-K694A, and the -acceptor can be selected from the list consisting of: EYFP, EYFP-WT, EYFP-K44A, EYFP-1690K, EYFP-K694A. In yet another embodiment the FLIM assay is performed in podocytes and the donor is GTPase-Alexa488 and the acceptor is selected from the list consisting of: DAM-Alexa568, GTPase-Alexa568, and Hudyl-Alexa568. Cells are stained by mixing both donor and acceptor florophores in equal amounts, and examining the spatially-restricted lifetime shortening in cells detects the localization of dynamin-dynamin interactions in cells. Since dynamin-dynamin interactions are vital for the function of the podocyte, it will be appreciated by the person of ordinary skill in the art that this assay can now be used to screen peptides, small molecules or drugs which can affect these molecular interactions. For example such molecules are cytocholasin D, jasplakinolide, colchisine, dynK44A, dynK694A, dynWT, dynI690K, dynR725A (SEQ ID NO.4), dynL356Q, G358V, (SEQ ID NO.3) any combination thereof, etc.
In order to test the hypothesis that self-assembly of dynamin was protecting its cathepsin L processing in cultured podocytes, dynamin self-assembly in live cells was examined using fluorescence lifetime imaging microscopy (FLIM). FLIM is based on the fluorescence resonance energy transfer (FRET) between the donor and the acceptor that shortens the lifetime of the donor if the acceptor distance is within ≈100 Å (10 nm). […] A FLIM-assay was developed that specifically detects dynamin self-assembly into the higher order structures in podocytes. The assay is based on overexpressing dynamin in podocytes, and subsequently staining fixed cells with monoclonal anti-dynamin antibodies that have been conjugated with either Alexa-488 (donor florophore) or Alexa-568 (acceptor florophore). Cells are stained by mixing both florophores in equal amounts, and examining lifetime of Alexa-488. […] Importantly, FRET only occurred in the vicinity of the membrane. […] Thus, both dominant activating mutants, dynK694A and dynR725A, are impaired for assembly into a supramolecular structures in podocytes under normal conditions. […] Loss of FRET measured FLIM correlates with the loss of p40 proteolytic fragment in cultured podocytes. And presence of p40 in cells expressing dynR725A under normal conditions correlates with the lack of dynR725A assembly detected by FLIM. The opposite is true for the dynWT; lack of p40 under control conditions when FLIM is present, and appearance of the p40 upon LPS treatment with no measurable FRET. […] Finally, proteolytic processing of dynamin after LPS treatment is also observed in vivo. […]

[2] = tested on: dynamin-dynamin interactions; experiment: FLIM analysis of dynamin-dynamin interactions in live COS cells; type: cell-based; conditions: for dynamin-dynamin interactions measured by FLIM, in words: COS cells pre-treated; for Mean Lifetime (γ1) ps: Table 3
Text: FLIM is based on the fluorescence resonance energy transfer (FRET) between the donor and acceptor that shortens the lifetime of the donor if the acceptor distance is within ≈100 Å (10 nm). […] To this end, dynamin was tagged with either ECFP or EYFP on its N- and C-termini. Fusion proteins were expressed in COS cells, because these cells are flattened and have minimal background autofluorescence, which allows clear visualization of cells by wide-field microscopy.
The observed decrease in fluorescence lifetime of CFP-dynamin in cells expressing EYFP-dynamin could result from interactions between dynamin monomers within tetramers/dimers, or from interactions between assembled tetramers/dimmers into higher order structures (FIG. 8C). To distinguish these two possibilities, we used FLIM to examine dynI690K. […] The longer average lifetimes of dynI690K than dynwt argue strongly that the assay detects higher order dynamin self-assembly and not tetramer formation.

[3] = donor CFP-WT, acceptor YFP-WT, cells treated with the substance

T1 sequence (P07711 114-333, species assumed): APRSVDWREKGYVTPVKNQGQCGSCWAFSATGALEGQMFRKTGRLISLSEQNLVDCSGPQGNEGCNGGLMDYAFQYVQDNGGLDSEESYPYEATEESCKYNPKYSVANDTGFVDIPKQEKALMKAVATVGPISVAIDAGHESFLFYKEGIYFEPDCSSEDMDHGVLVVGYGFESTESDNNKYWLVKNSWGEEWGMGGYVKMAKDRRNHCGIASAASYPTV

Row | Molecule | cleavage of dynamin by cathepsin L, in words (cathepsin L; pH 7.0) | dynamin self-assembly by FLIM, in words [1] | dynamin-dynamin interactions measured by FLIM, in words [2] | Mean Lifetime (γ1) ps [2, 3] [ps] | other results
1 | Nc1nc2c(ncn2[C@@H]2O[C@H](COP(=O)(O)OP(=O)(O)OP(=O)(O)O)[C@@H](O)[C@H]2O)c(=O)[nH]1 [GTP] | resulted in significant cleavage of dynamin by cathepsin L; also recorded: resulted in the generation of a prominent proteolytic fragment | – | – | – | –
2 | C=C1[C@@H](C)[C@H]2[C@H](Cc3ccccc3)NC(=O)[C@]23[C@H](OC(C)=O)/C=C/[C@@](C)(O)C(=O)[C@@H](C)C/C=C/[C@H]3[C@@H]1O [Cyto. D, cytochalasin D] | – | decrease in the lifetime of alexa 488 is detected through the cytoplasm | significantly promoted dynamin-dynamin interactions | 510 ± 29 | –
3 | Nc1nc2c(ncn2[C@@H]2O[C@H](COP(=O)(O)OP(=O)(O)OP(O)(O)=S)[C@@H](O)[C@H]2O)c(=O)[nH]1 [GTPγS] | abolished dynamin cleavage by cathepsin L; also recorded: did not stimulate cleavage by CatL | – | – | – | cleavage of dynamin by cathepsin L, in words (cathepsin L; acidic pH (5.0 and 6.0)): completely inhibited; cleavage of dynamin by cathepsin L, in words (cathepsin L; acidic pH (5.0 and 6.0), listed as GTP7S): completely inhibited; cleavage of dynamin by cathepsin L, in words (cathepsin L; acidic pH (5.0 and 6.0), listed as GTPgammaS): protects from cathepsin L mediated cleavage; cleavage of dynamin by cathepsin L, in words (cathepsin L; pH 7.0, listed as GTPgammaS): inhibited
4 | C/C1=C\[C@H](C)C[C@H](C)OC(=O)C[C@H](c2ccc(O)cc2)NC(=O)[C@@H](Cc2c(Br)[nH]c3ccccc23)N(C)C(=O)[C@H](C)NC(=O)[C@@H](C)C1 [Jaspl., jasplakinolide, reference compound] | – | did not effect dynamin self-assembly at the membrane | had no effect | 845 ± 263 | Mean Lifetime (γ1) ([1]; Table 4, donor GTPase-a488, acceptor Hudy1-a568, in ps): 2254 ± 58
5 | B1 | – | – | – | – | Mean Lifetime (γ1) ps ([2]; acceptor YFP not fused to dynamin): 1838 ± 309 ps; Mean Lifetime (γ1) ps ([2]; donor alone, no acceptor): 2292 ± 297 ps
6 | B2 | – | – | – | – | Mean Lifetime (γ1) ps ([2]; acceptor YFP fused to the same dynamin variant): 1858 ± 187 ps
